A word on the EC50: it is the concentration that produces a half-maximal response. For orientation: Ki means a measure of affinity in units of concentration, obtained from inhibition or displacement.

Data on 23 compounds can be found in patent US8198311B2, “Modulators of glucocorticoid receptor, AP-1, and/or NF-κB activity and use thereof” (Bristol-Myers Squibb Company, priority 2006, dated 2012).

Read-outs that look alike come from different tables or passages of the source.

For assay [1], the system named is AP-1 induced transcriptional activity. Briefly: Cellular Transrepressional Assay (AP-1 luciferase reporter in A549 cells, PMA-activated). The format is cell-based. The note with it: pAP-1-Luc, 10 ng/ml PMA, read-out: AP-1 (EC50, nM) (Cellular Transrepression Assay). Here is the method: To measure the ability of test molecules to inhibit AP-1 induced transcriptional activity an A549 cell was utilized which was stably transfected with a plasmid containing 7×AP-1 DNA binding sites (pAP-1-Luc plasmid, Stratagene Co. La Jolla, Calif.) followed by the gene for luciferase. Cells were activated with 10 ng/ml of phorbol myristic acid (PMA) plus or minus test molecules for 7 hours. After 7 hours a luciferase reagent was added to measure luciferase enzymatic activity in the cell. After a 10 minute incubation of luciferase reagent with cells, luminescence was measured in a TopCount luminescence counter. Repression of AP-1 activity was calculated as the percentage decrease in the signal induced by PMA alone. Test molecules were analyzed in the concentration range from 0.1 nM to 40 μM. EC50s were determined by using standard curve fitting methods such as Excel fit (Microsoft Co.).
A general note: In a reporter assay the amount or activity of a reporter protein is the signal.

For assay [2], the target named is T1, human glucocorticoid receptor (Homo sapiens, UniProt P04150).
T1 construct: purified human recombinant full-length glucocorticoid receptor (2 nM); purchased Invitrogen Part # 2893
T1 sequence (P04150 1-777): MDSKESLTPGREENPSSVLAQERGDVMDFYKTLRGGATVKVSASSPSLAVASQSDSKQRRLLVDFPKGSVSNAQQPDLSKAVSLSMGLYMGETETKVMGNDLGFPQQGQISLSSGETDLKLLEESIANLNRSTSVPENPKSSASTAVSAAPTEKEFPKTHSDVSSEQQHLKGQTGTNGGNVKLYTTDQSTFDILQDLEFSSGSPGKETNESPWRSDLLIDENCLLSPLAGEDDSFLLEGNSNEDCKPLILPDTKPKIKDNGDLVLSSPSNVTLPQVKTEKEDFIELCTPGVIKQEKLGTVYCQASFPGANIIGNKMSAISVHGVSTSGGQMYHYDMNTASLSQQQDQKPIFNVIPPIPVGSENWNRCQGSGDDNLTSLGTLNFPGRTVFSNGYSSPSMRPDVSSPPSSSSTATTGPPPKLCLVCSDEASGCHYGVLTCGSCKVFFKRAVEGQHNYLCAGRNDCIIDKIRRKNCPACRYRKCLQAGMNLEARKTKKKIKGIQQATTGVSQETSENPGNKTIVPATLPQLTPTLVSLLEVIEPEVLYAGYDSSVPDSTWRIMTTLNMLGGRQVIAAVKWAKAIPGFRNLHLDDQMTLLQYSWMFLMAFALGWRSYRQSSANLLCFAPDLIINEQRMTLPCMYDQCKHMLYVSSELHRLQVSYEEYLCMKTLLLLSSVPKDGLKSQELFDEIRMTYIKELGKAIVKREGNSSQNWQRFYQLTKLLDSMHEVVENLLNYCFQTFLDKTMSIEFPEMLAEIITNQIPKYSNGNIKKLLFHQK
Briefly: Glucocorticoid Receptor Binding Assay (I), fluorescence polarization competitor kit (Fluormone GS Red). The note with it: purified human recombinant full-length GR. How it is done: In order to assess the affinity of test compounds for the human glucocorticoid receptor, a commercially available kit was used (Glucocorticoid Receptor Competitor Assay Kit, Invitrogen Part # 2893). Briefly, purified human recombinant full-length glucocorticoid receptor (2 nM) was mixed with fluorescently labeled glucocorticoid (1 nM Fluormone GS Red) in the presence or absence of test compound. After two hour incubation at room temperature in the dark, the fluorescence polarization (FP) of the samples was measured. […] Test compounds were analyzed in the concentration range from 8.5E-05 μM to 5 μM.
Background: In fluorescence polarisation assays a small probe gives low polarisation when free and higher when bound to something large.

Take `CC(CNC(=O)NC(C)(C)C)C(c1ccccc1)c1ccc2c(cnn2-c2ccc(F)cc2)c1` (single isomer, unassigned) [Example 97B, 1-tert-butyl-3-(3-(1-(4-fluorophenyl)-1H-indazol-5-yl)-2-methyl-3-phenylpropyl)urea]: in assay [1] (7 hours), the EC50 amounted to 136 nM. Also, the Ki in assay [2] turned out to be 43 nM.

As to `CC(CNC(=O)NC(C)(C)C)C(c1ccccc1)c1ccc2c(cnn2-c2ccc(F)cc2)c1` (single isomer, unassigned) [Example 97C, 1-tert-butyl-3-(3-(1-(4-fluorophenyl)-1H-indazol-5-yl)-2-methyl-3-phenylpropyl)urea], in assay [1] (7 hours), the EC50 stood at 158 nM. For the same compound, the Ki in assay [2] amounted to 3.5 nM.

As to `CC(C)(CNC(=O)CC(F)(F)F)[C@@H](c1ccccc1)c1ccc2c(cnn2-c2ccc(F)cc2)c1` [(S)-17, (S)-3,3,3-trifluoro-N-(3-(1-(4-fluorophenyl)-1H-indazol-5-yl)-2,2-dimethyl-3-phenylpropyl)-propanamide], the EC50 in assay [1] (Homo sapiens, A549, 7 h) was 13 nM. The Ki in assay [2] is 0.63 nM.

In the case of `CC(C)(CNS(=O)(=O)CC(F)(F)F)[C@@H](c1ccccc1)c1ccc2c(cnn2-c2ccc(F)cc2)c1` [Example 18, (S)-2,2,2-trifluoro-N-(3-(1-(4-fluorophenyl)-1H-indazol-5-yl)-2,2-dimethyl-3-phenylpropyl)ethanesulfonamide], the concentration giving a half-maximal response (EC50) in assay [1] (Homo sapiens, A549, 7 h) worked out at 25 nM. For the same compound, the Ki in assay [2] came out at 1.1 nM.

Turning to `CC(C)CC(c1ccc2c(cnn2-c2ccc(F)cc2)c1)C(C)(C)CNC(=O)NCC(C)(C)C` (stereo not shown) [Example 35, 1-(3-(1-(4-fluorophenyl)-1H-indazol-5-yl)-2,2,5-trimethylhexyl)-3-neopentylurea], the EC50 in assay [1] (Homo sapiens, A549, 7 h) came to 159 nM. Moreover, in assay [2], the Ki is 2.3 nM.

With `CC(C)CC(c1ccc2c(cnn2-c2ccc(F)cc2)c1)C(C)(C)CNC(=O)NC1CCOCC1` (stereo not shown) [Example 37, 1-(3-(1-(4-fluorophenyl)-1H-indazol-5-yl)-2,2,5-trimethylhexyl)-3-(tetrahydro-2H-pyran-4-yl)urea], the EC50 in assay [1] (Homo sapiens, A549, 7 h) is greater than 10000 nM. Further, the Ki in assay [2] turned out to be 5.8 nM.

As for `CC(C)CC(c1ccc2c(cnn2-c2ccc(F)cc2)c1)C(C)(C)CNC(=O)NC1(C)CCS(=O)(=O)C1` (stereo not shown) [Example 38], the EC50 in assay [1] (Homo sapiens, A549, 7 h) was greater than 10000 nM. Moreover, the Ki in assay [2] is 6.3 nM.

As to `CC(C)CC(c1ccc2c(cnn2-c2ccc(F)cc2)c1)C(C)(C)CNC(=O)N1CCC[C@@H]1CO` (stereo partly drawn) [Example 39, (2R)-N-(3-(1-(4-fluorophenyl)-1H-indazol-5-yl)-2,2,5-trimethylhexyl)-2-(hydroxymethyl)pyrrolidine-1-carboxamide], the EC50 in assay [1] (Homo sapiens, A549, 7 h) was greater than 10000 nM. Further, the Ki in assay [2] came out at 3.2 nM.

Consider `CC(C)CC(c1ccc2c(cnn2-c2ccc(F)cc2)c1)C(C)(C)CNC(=O)N1CC(N)C1` (stereo not shown) [Example 40, 3-amino-N-(3-(1-(4-fluorophenyl)-1H-indazol-5-yl)-2,2,5-trimethylhexyl)azetidine-1-carboxamide], for which the EC50 in assay [1] (Homo sapiens, A549, 7 h) was greater than 10000 nM. The Ki in assay [2] was 11 nM.

On to `CC(C)CC(c1ccc2c(cnn2-c2ccc(F)cc2)c1)C(C)(C)CNC(=O)NC(C)(C)CN` (stereo not shown) [Example 41, 1-(1-amino-2-methylpropan-2-yl)-3-(3-(1-(4-fluorophenyl)-1H-indazol-5-yl)-2,2,5-trimethylhexyl)urea], for which the EC50 in assay [1] (Homo sapiens, A549, 7 h) was greater than 10000 nM. Moreover, the inhibition constant (Ki) in assay [2] stood at 8.1 nM.

Consider `CC(C)CC(c1ccc2c(cnn2-c2ccc(F)cc2)c1)C(C)(C)CNC(=O)NC1(CO)CCCC1` (stereo not shown) [Example 42, 1-(3-(1-(4-fluorophenyl)-1H-indazol-5-yl)-2,2,5-trimethylhexyl)-3-(1-(hydroxymethyl)cyclopentyl)urea], for which the EC50 in assay [1] (Homo sapiens, A549, 7 h) came to 682 nM. In assay [2], the Ki is 2.4 nM.

Consider `CC(C)CC(c1ccc2c(cnn2-c2ccc(F)cc2)c1)C(C)(C)CNC(=O)N[C@H](C)C(C)(C)C` (stereo partly drawn) [Example 44, 1-((R)-3,3-dimethylbutan-2-yl)-3-(3-(1-(4-fluorophenyl)-1H-indazol-5-yl)-2,2,5-trimethylhexyl)urea], for which, in assay [1] (Homo sapiens, A549, 7 h), the EC50 came to 54 nM. Moreover, in assay [2], the inhibition constant (Ki) is 2.7 nM.

On to `CC(C)CC(c1ccc2c(cnn2-c2ccc(F)cc2)c1)C(C)(C)CNC(=O)N[C@H](C)CO` (stereo partly drawn) [Example 45, 1-(3-(1-(4-fluorophenyl)-1H-indazol-5-yl)-2,2,5-trimethylhexyl)-3-((R)-1-hydroxypropan-2-yl)urea], for which the EC50 in assay [1] (Homo sapiens, A549, 7 h) was found to be 1540 nM. Further, in assay [2], the Ki came to 2.1 nM.

`CC(C)CC(c1ccc2c(cnn2-c2ccc(F)cc2)c1)C(C)(C)CNC(=O)NC(CO)CO` (stereo not shown) [Example 46, 1-(1,3-dihydroxypropan-2-yl)-3-(3-(1-(4-fluorophenyl)-1H-indazol-5-yl)-2,2,5-trimethylhexyl)urea]: the EC50 in assay [1] (Homo sapiens, A549, 7 h) came out at 6050 nM. In addition, the Ki in assay [2] came to 1.5 nM.

In the case of `CC(C)CC(c1ccc2c(cnn2-c2ccc(F)cc2)c1)C(C)(C)CNC(=O)N[C@@H](C)CO` (stereo partly drawn) [Example 47, 1-(3-(1-(4-fluorophenyl)-1H-indazol-5-yl)-2,2,5-trimethylhexyl)-3-((S)-1-hydroxypropan-2-yl)urea], the EC50 in assay [1] (Homo sapiens, A549, 7 h) was found to be 204 nM. Also, the Ki in assay [2] worked out at 1.3 nM.

As for `CC(C)CC(c1ccc2c(cnn2-c2ccc(F)cc2)c1)C(C)(C)CNC(=O)NC(C)(C)c1ccccc1` (stereo not shown) [Example 48, 1-(3-(1-(4-fluorophenyl)-1H-indazol-5-yl)-2,2,5-trimethylhexyl)-3-(2-phenylpropan-2-yl)urea], the EC50 in assay [1] (Homo sapiens, A549, 7 h) was determined as 42 nM. Besides, in assay [2], the Ki was 3.1 nM.

Turning to `CC(C)CC(c1ccc2c(cnn2-c2ccc(F)cc2)c1)C(C)(C)CNC(=O)Nc1ccccc1` (stereo not shown) [Example 50, 1-(3-(1-(4-fluorophenyl)-1H-indazol-5-yl)-2,2,5-trimethylhexyl)-3-phenylurea], in assay [1] (Homo sapiens, A549, 7 h), the EC50 came to 223 nM. Also, the Ki in assay [2] came to 7.5 nM.

As to `CC(C)CC(c1ccc2c(cnn2-c2ccc(F)cc2)c1)C(C)(C)CNC(=O)NC(C)(C)CC(=O)O` (stereo not shown) [Example 51, 3-(3-(3-(1-(4-fluorophenyl)-1H-indazol-5-yl)-2,2,5-trimethylhexyl)ureido)-3-methylbutanoic acid], in assay [1] (Homo sapiens, A549, 7 h), the EC50 was 624 nM. In addition, the Ki in assay [2] came out at 3 nM.

On to `Cc1ccc(C(C)(C)NC(=O)NCC(C)(C)C(CC(C)C)c2ccc3c(cnn3-c3ccc(F)cc3)c2)c(C)n1` (stereo not shown) [Example 52, 1-(2-(2,6-dimethylpyridin-3-yl)propan-2-yl)-3-(3-(1-(4-fluorophenyl)-1H-indazol-5-yl)-2,2,5-trimethylhexyl)urea], for which the half-maximal effective concentration (EC50) in assay [1] (Homo sapiens, A549, 7 h) was determined as 772 nM. Moreover, the Ki in assay [2] turned out to be 2.3 nM.

`Cc1cc(C(C)(C)NC(=O)NCC(C)(C)C(CC(C)C)c2ccc3c(cnn3-c3ccc(F)cc3)c2)ccn1` (stereo not shown) [Example 53, 1-(3-(1-(4-fluorophenyl)-1H-indazol-5-yl)-2,2,5-trimethylhexyl)-3-(2-(2-methylpyridin-4-yl)propan-2-yl)urea]: the EC50 in assay [1] (Homo sapiens, A549, 7 h) came out at 306 nM. In addition, the Ki in assay [2] amounted to 1.8 nM.

`CC(C)CC(c1ccc2c(cnn2-c2ccc(F)cc2)c1)C(C)(C)CNC(=O)NC(C)(C)Cc1ccc(F)cc1` (stereo not shown) [Example 54, 1-(3-(1-(4-fluorophenyl)-1H-indazol-5-yl)-2,2,5-trimethylhexyl)-3-(1-(4-fluorophenyl)-2-methylpropan-2-yl)urea]: in assay [1] (Homo sapiens, A549, 7 h), the EC50 is 285 nM. Further, the Ki in assay [2] is 22 nM.

On to `CC(C)CC(c1ccc2c(cnn2-c2ccc(F)cc2)c1)C(C)(C)CNC(=O)N(C)C` (stereo not shown) [Example 55, 3-(3-(1-(4-fluorophenyl)-1H-indazol-5-yl)-2,2,5-trimethylhexyl)-1,1-dimethylurea], for which the EC50 in assay [1] (Homo sapiens, A549, 7 h) is 698 nM. The inhibition constant Ki in assay [2] amounted to 1.4 nM.

In the case of `CC(C)CC(c1ccc2c(cnn2-c2ccc(F)cc2)c1)C(C)(C)CNC(=O)NC(C)(C)C(=O)Nc1ccccc1` (stereo not shown) [Example 56, 2-(3-(3-(1-(4-fluorophenyl)-1H-indazol-5-yl)-2,2,5-trimethylhexyl)ureido)-2-methyl-N-phenylpropanamide], the 50% effective concentration (EC50) in assay [1] (Homo sapiens, A549, 7 h) worked out at 80 nM. The Ki in assay [2] came out at 6.1 nM.
